Laboratory results reported in patent publication US20130210860A1, “PROPHYLACTIC AND/OR THERAPEUTIC AGENT AGAINST LYMPHEDEMA” (KOWA CO., LTD., priority 2010, published 2013).

Legend:
[1] = tested on: mouse model of abdominal wall lymphedema; assay: Mouse model of abdominal wall lymphedema, thickness of the skin section (eNOS-deficient mouse); format: in vivo, eNOS-deficient mouse having a genetic background of C57BL/6J; conditions: Experiment 1, 10 mg/kg/day oral, once a day from three days before to seven days after the surgery, FIG. 1
Description: A male C57BL/6J mouse and a male eNOS-deficient mouse having a genetic background of C57BL/6J, both of which are eight weeks old at the time of surgery, each receives an intraperitoneal injection of Nembutal at 60 mg/kg, and further receives a subcutaneous injection of 1% Evans blue for identification of lymph nodes and lymphatic vessels in the dorsum of the right foot, the back of the hand, and the buttocks in an amount of 0.05 mL at each site. The abdominal hair was removed and the abdominal skin is incised in an open-door fashion so as to identify the inguinal lymph nodes, axillary lymph nodes, and lymphatic vessels connecting these lymph nodes in the right abdominal wall. The lymphatic vessels are ligated at two to three sites near the axillary lymph nodes, followed by excision of the axillary lymph nodes. Subsequently, the skin is sutured, whereby the surgery is completed. On the seventh day after the surgery, the abdominal skin is once again incised in an open-door fashion to collect the abdominal wall tissues. The mice were orally administered with the statins dissolved in distilled water (250 μl) from three days before to seven days after the surgery once a day. […] Methanol-fixed paraffin-embedded tissue sections were stained with hematoxylin, and the thickness of the skin section prepared from the upper inguinal area, which is the lowermost part of a mouse, was measured. […]

[2] = tested on: mouse model of abdominal wall lymphedema; assay: Mouse model of abdominal wall lymphedema, thickness of the skin section (wild-type mouse); format: in vivo, C57BL/6J mouse; conditions: for lymphedema (thickness of the skin): C57BL/6J mice, combined results of Experiments 2 and 3, pitavastatin 1 mg/kg/day, atorvastatin 2.5 or 1 mg/kg/day, pravastatin 1 mg/kg/day oral, after seven days, FIG. 2
Description: A male C57BL/6J mouse and a male eNOS-deficient mouse having a genetic background of C57BL/6J, both of which are eight weeks old at the time of surgery, each receives an intraperitoneal injection of Nembutal at 60 mg/kg, and further receives a subcutaneous injection of 1% Evans blue for identification of lymph nodes and lymphatic vessels in the dorsum of the right foot, the back of the hand, and the buttocks in an amount of 0.05 mL at each site. The abdominal hair was removed and the abdominal skin is incised in an open-door fashion so as to identify the inguinal lymph nodes, axillary lymph nodes, and lymphatic vessels connecting these lymph nodes in the right abdominal wall. The lymphatic vessels are ligated at two to three sites near the axillary lymph nodes, followed by excision of the axillary lymph nodes. Subsequently, the skin is sutured, whereby the surgery is completed. On the seventh day after the surgery, the abdominal skin is once again incised in an open-door fashion to collect the abdominal wall tissues. The mice were orally administered with the statins dissolved in distilled water (250 μl) from three days before to seven days after the surgery once a day. […] Methanol-fixed paraffin-embedded tissue sections were stained with hematoxylin, and the thickness of the skin section prepared from the upper inguinal area, which is the lowermost part of a mouse, was measured. Anatomically, interstitial fluid tends to be accumulated in this area.

[3] = tested on: mouse model of abdominal wall lymphedema; assay: Visual examination by lymphangiography (Evans blue): leakage of lymph fluid and lymphatic flow in the lymphedema model; format: in vivo, C57BL/6J mouse; conditions: C57BL/6J mice; administration method of Experiment 3 (1 mg/kg/day oral); lymphangiography on the seventh and fourteenth days after the surgery; FIG. 3
Description: A male C57BL/6J mouse and a male eNOS-deficient mouse having a genetic background of C57BL/6J, both of which are eight weeks old at the time of surgery, each receives an intraperitoneal injection of Nembutal at 60 mg/kg, and further receives a subcutaneous injection of 1% Evans blue for identification of lymph nodes and lymphatic vessels in the dorsum of the right foot, the back of the hand, and the buttocks in an amount of 0.05 mL at each site. The abdominal hair was removed and the abdominal skin is incised in an open-door fashion so as to identify the inguinal lymph nodes, axillary lymph nodes, and lymphatic vessels connecting these lymph nodes in the right abdominal wall. The lymphatic vessels are ligated at two to three sites near the axillary lymph nodes, followed by excision of the axillary lymph nodes. Subsequently, the skin is sutured, whereby the surgery is completed. […]
On the seventh and fourteenth days after the surgery, 0.05 μl of 1% Evans blue was locally injected into the inguinal lymph nodes for lymphangiography, whereby leakage of lymph fluid and lymphatic flow were evaluated.
Each statin was administered by the administration method employed in Experiment 3) and the leakage of lymph fluid and lymphatic flow were evaluated by lymphangiography of the lymph node tissues.

O=C(O)C[C@H](O)C[C@H](O)/C=C/c1c(C2CC2)nc2ccccc2c1-c1ccc(F)cc1 [pitavastatin, (3R,5S,6E)-7-[2-cyclopropyl-4-(4-fluorophenyl)-3-quinolyl]-3,5-dihydroxy-6-heptenoic acid]
lymphedema (thickness of the skin section prepared from the upper inguinal area) [1]: markedly inhibited | lymphedema (thickness of the skin) [2]: markedly inhibit | lymphedema (thickness of the skin section prepared from the upper inguinal area) ([2]; wild-type mouse, Experiment 1, 10 mg/kg/day oral, once a day from three days before to seven days after the surgery, FIG. 1): markedly inhibited | leakage of lymph fluid [3]: markedly inhibited

CC[C@H](C)C(=O)O[C@H]1C[C@H](O)C=C2C=C[C@H](C)[C@H](CC[C@@H](O)C[C@@H](O)CC(=O)O)[C@H]21 [pravastatin, (+)-(3R,5R)-3,5-dihydroxy-7-[(1S,2S,6S,8S,8aR)-6-hydroxy-2-methyl-8-[(S)-2-methylbutyryloxy]-1,2,6,7,8,8a-hexahydro-1-naphthyl]heptanoic acid]
lymphedema (thickness of the skin) [2]: markedly inhibit
